Reference: US6432711B1, “Embryonic stem cells capable of differentiating into desired cell lines” (Diacrin, Inc., priority 1993, dated 2002)

Tests used:
Format in all cases: cell-based
[1] = system: embryonic stem cells (ES-D3); assay: Differentiation of embryonic stem cell aggregates into contracting muscle cells by dimethylsulfoxide induction; conditions: 1% (by volume) dimethylsulfoxide in DMEM plus 10% horse serum, aggregates cultured 5 days in multi-well dishes
Text: Undifferentiated embryonic stem cells (ES-D3, purchased from the American Type Culture Collection as ATCC catalog no. ATCC CRL 1934) are maintained in supplemented Dulbecco's modified Minimal Essential Medium as described in Example 1. The embryonic stem cells then are trypsinized and washed free of LIF and placed in 1% (by volume) dimethylsulfoxide in DMEM plus 10% horse serum. Two days after the addition of dimethylsulfoxide and plating of cells in Petri dishes to form aggregates, the aggregates are collected and resuspended in fresh medium plus 1% dimethylsulfoxide. The aggregates are then plated onto multi-well untreated culture grade dishes without trypsin treatment. One aggregate is plated per well. The aggregates are cultured for 5 days. Upon culturing of the cells in multi-well dishes, cell cultures in which greater than 80% of the aggregates contain contracting muscle cells are obtained. Such cells may be used to treat cardiomyopathies, myocardial infarction, congestive heart failure, or muscular dystrophy.

[2] = system: D3 and E14 TG2a embryonic stem cell lines transfected with mouse MyoD cDNA; assay: Differentiation of MyoD-transfected embryonic stem cell lines into muscle after dimethylsulfoxide induction
Procedure: For transfection of embryonic stem cells with mouse MyoD cDNA, both the D3 (ATCC catalog no. CRL 1934) and E14 TG2a (ATCC catalog no. CRL 1821) embryonic stem cell lines were used. Embryonic stem cells were cultured as described in Robertson, 1987, except that the cells were maintained in media containing 5 ng/ml human recombinant leukemia inhibitory factor instead of on feeder layers.
Embryonic stem cells were co-transfected with pKJ1-Neo (Dinsmore, et al., Cell, Vol. 64, pgs. 817-826 (1991)), which carries the neomycin resistance gene for selection of stable transfectants, and with pEMCII (Davis, et al., Cell, Vol. 51, pgs. 987-1000 (1987)), which contains a portion of the mouse MyoD cDNA. pKJ1-Neo was linearized at the unique NsiI site and pEMCII was linearized at the unique ScaI site. In order to introduce the linearized plasmids into the embryonic stem cells, the embryonic stem cells were electroporated using a Gene Pulser (Bio Rad) in 0.4 cm gap distance electroporation cuvettes with the Gene Pulser set at 240 volts, 500μ Farads. […]
Stable transfectants were isolated, expanded, frozen, and then stored in liquid nitrogen. […] The percentage of cells that differentiated into skeletal muscle was greater than 90% as assessed by staining for muscle specific myosin, and by the ability of these cells to fuse and form myotubes that spontaneously twitch. […]

[3] = system: embryonic stem cells (ES-E14TG2a); assay: Differentiation of embryonic stem cells into neuronal cells by retinoic acid induction; conditions: 0.5 μM retinoic acid, aggregates induced four days in DMEM plus 10% FBS, then cultured 5 days in stem cell medium on poly-D-lysine
Text: Undifferentiated embryonic stem cells (ES-E14TG2a, purchased from the American Type Culture Collection, catalog no. ATCC CRL 1821) are maintained in Dulbecco's modified Minimal Essential Medium (DMEM) supplemented with glutamine, β-mercaptoethanol, 10% (by volume) horse serum, and human recombinant Leukemia Inhibitory Factor (LIF). The LIF replaces the need for maintaining embryonic stem cells on feeder layers of cells, and is essential for maintaining embryonic stem cells in an undifferentiated state.
In order to promote the differentiation of the embryonic stem cells into neuronal cells, the embryonic stem cells are trypsinized and washed free of LIF, and placed in DMEM supplemented with 10% (by volume) fetal bovine serum (FBS). After resuspension in DMEM and 10% FBS, 1×10^6 cells are plated in 5 ml DMEM plus 10% FBS plus 0.5 μM retinoic acid in a 60 mm Fisher brand bacteriological grade Petri dish. In such Petri dishes, embryonic stem cells cannot adhere to the dish, and instead adhere to each other, thus forming small aggregates of cells. Aggregation of cells aids in enabling proper cell differentiation. After two days, aggregates of cells are collected and resuspended in fresh DMEM plus 10% FBS plus 0.5 μM retinoic acid, and replated in Petri dishes for an additional two days. […]

Row | SMILES | percentage of aggregates that contain contracting muscle cells [1] | cell types obtained after induction ([2]; MyoD transformants expressing very low amounts of MyoD, indistinguishable from non-transfected embryonic stem cells) | percentage of cells that differentiated into skeletal muscle ([2]; cell lines expressing high amounts of MyoD, staining for muscle specific myosin, fusion into twitching myotubes) | percentage of cells in the culture that are neuronal cells [3]
1 | C[S+](C)[O-] [dimethylsulfoxide] | greater than 80% | mix of cardiac, smooth, and skeletal muscle | greater than 90% | –
2 | CC1=C(/C=C/C(C)=C/C=C/C(C)=C/C(=O)O)C(C)(C)CCC1 [retinoic acid] | – | – | – | greater than 90%
